Source: patent publication US5994357A, “Method of treatment for interstitial cystitis” (priority 1994, dated 1999)
Structures can show the parent of a compound that is named as a salt.

Assays:
[1] = cited from earlier work
[2] = format: in vivo, human (female patients); conditions: for relief by previous treatment: six DMSO treatments and one heparin treatment
Method: They were administered a 75 mg oral dose of hydroxyzine pamoate per day. After 5 days the burning sensation upon voiding and sharp pelvic pain disappeared. In two months, the extreme tenderness from their chest area to pelvic area also disappeared. After about 10 to 12 weeks frequency was eliminated. […] Upon discontinuing administration of hydroxyzine pamoate symptoms reappeared within 24 hours or less. After one year of treatment, the subject takes 50 mg and 25 mg of hydroxyzine pamoate, respectively, on alternating days, with continued 100% success.
This person three was diagnosed with interstitial cystitis in March 1989. […] Their symptoms included constant burning in the bladder, pain at the connection of the buttocks with the upper legs and painful sexual intercourse. They could not sleep although their need to urinate was only about four times per night. Sitting on "blue ice" packs wrapped in a cloth provided some relief from the buttock pain and the burning.
This is person one who experienced increasing problems over the last 10 years until it became difficult to function as a nurse, parent and spouse. […] They had not received any treatment since February 1990 and was experienceing a flare up of symptoms when they tried hydroxyzine-HCl. […]

bladder mast cells = test: Inhibition of neurohormonal activation of bladder mast cell secretion; format: cell-based; conditions: for inhibition of neurohormonal activation of bladder mast cell secretion (in words): found by the applicant
Excerpt: "Inhibitor of neurohormonal activation of mast cell secretion" refers to any substance or group of substances, devoid of any psychotropic effects which prevent the stimulation of mast cell secretion by hormones or molecules produced by nervous tissue. Whether or not a pharmacologically active substance is an inhibitor of neurohormonal activation of mast cell secretion can be determined by using the following procedure: Mast cells purified from peritoneal cavities of rats and stimulated by a neuropeptide, such as somatostatin (Theoharides, T. C. and Douglas, W. W. Endocrinology 102:1637-1640, 1978), or rat brain slices stimulated by substance P in special perfusion chambers (Dimitriadou, V., Buzzi, M. G., Moskowitz, M. A. and Theoharides, T. C. Neuroscience 44:27-39, 1991) or rat bladder mast cells stimulated by carbachol in special perfusion chambers (Theoharides, T. C. and Sant, G. R. Seminars Urology […], 1991) will first be […] with concentration of the agents to be tested ranging from 0.1 μmol/L-to-100 μmol/L of solution for varying amounts of time at 37° C. to determine their ability to inhibit subsequent mast cell secretion as described above.
These compounds can be tested by preincubating mast cells purified from the peritoneal cavity of rats with various concentrations of compound, typically 0.1 μmol/L to 1,000 μmol/L, for various times at 37° C. before stimulating mast ctll secretion with a stimulus such as somatostatin (Theoharides, T. C. and Douglas, W. W. Somatostatin induces histamine secretion from rat peritoneal mast cells. Endocrinology 102:1637-1640, 1978).
(§1) More appropriate to interstitial cystitis, bladder mast cells can be triggered to secrete in situ using slices of rodent bladders in perfusion chambers and measuring secreted chemicals (Theoharides, T. C. and Sant, G. R. Bladder mast cell activation in interstitial cystitis. Seminars Urology 9:74-87, 1991).

[3] = cited from earlier work; remark: listed apart in the source
Rat Bladder Mast Cells = test: ID20 for histamine release, inhibition of mast cell secretion by H-1 receptor antagonists in vitro (Table 5); format: cell-based; conditions: inhibitory dose causing 20% inhibition, read-out: ID20 for Histamine Release from Rat Bladder Mast Cells
Excerpt: "Inhibitor of neurohormonal activation of mast cell secretion" refers to any substance or group of substances, devoid of any psychotropic effects which prevent the stimulation of mast cell secretion by hormones or molecules produced by nervous tissue.
as §1

neurons = test: Inhibition of neuropeptide release from neurons stimulated by high K^+; format: cell-based
[4] = Anticholinergic and anxiolytic properties; conditions: decreasing frequency
[5] = Example 2, patient three, since March 1991
[6] = Example 2, patient three, 25 mg
[7] = Example 1, patient two, 75 mg oral per day

Question: What does the source list for `CN(C)CCN(Cc1ccccc1)c1ccccn1` [pyribenzamine]?
Answer: duration of the response ([1]; oral, 50 mg three times daily): variable; symptomatic improvement ([1]; oral, 50 mg three times daily): some symptomatic improvement

Question: Which “pain on sexual intercourse” value ([2]; Example 2, patient three) does the source give for `OCCOCCN1CCN(C(c2ccccc2)c2ccc(Cl)cc2)CC1` (racemic) [hydroxyzine-HCl] here?
Answer: The value was “no longer associated with severe bladder pain”.

Question: And the quality of life ([2]; Example 2, patient three)?
Answer: Its quality of life is “definitely improved the quality of their life”.

Question: And the “tolerance of offending foods” value ([2]; Example 2, patient three)?
Answer: Its value is “they can eat some offending foods in small quantities”.

Question: And the “burning in the bladder” value [2, 5]?
Answer: Its value is “the burning has subsided significantly”.

Question: What about the buttock pain [2, 5] of the same molecule?
Answer: The buttock pain was “the buttock pain is reduced”.

Question: What about the “symptoms on attempted withdrawal of the drug” value ([2]; Example 3, patient one, 2 or 3 occasions) of the same molecule?
Answer: Its value is “definite increase in interstitial cystitissymptoms”.

Question: And the bladder comfort ([2]; Example 3, patient one, 25 to 50 mg daily)?
Answer: The bladder comfort was “almost total bladder comfort”.

Question: And the control of symptoms ([2]; Example 3, patient one, daily since May 1990)?
Answer: Its control of symptoms is “remarkable control of symptoms”.

Question: Which “inhibition of neurohormonal activation of bladder mast cell secretion (in words)” value (bladder mast cells) does the source give for `O=C(O)COCCN1CCN(C(c2ccccc2)c2ccc(Cl)cc2)CC1` (stereo not drawn) [cetirizine] here?
Answer: The value was “inhibit neurohormonal activation of bladder mast cell secretion”.

Question: For sodium pentosan polysulfate, which duration ([3]; must be taken numerous times per day) is on record?
Answer: Its duration is “short duration”.

Question: And the “amount of drug reaching the site of treatment” value ([3]; oral)?
Answer: The value was “only a small amount of the drug will reach the site of treatment”.

Question: And the metabolism ([3]; oral)?
Answer: Its metabolism is “primarily liver-metabolized”.

Question: And the “replacement of the protective surface mucin” value ([1]; oral or intravesical administration)?
Answer: Its value is “replace the protective surface mucin”.

Question: With `OCCOCCN1CCN(C(c2ccccc2)c2ccc(Cl)cc2)CC1` (stereo not drawn) [Hydroxyzine] as the molecule, how does the IC20 (Rat Bladder Mast Cells) read?
Answer: Its IC20 is 50000 nM.

Question: And the “inhibition of secretion from stimulated bladder mast cells (in words)” value (bladder mast cells; Table 3, unique characteristics)?
Answer: The value was “inhibits secretion from stimulated bladder mast cells”.

Question: And the “inhibition of neurohormonal activation of bladder mast cell secretion (in words)” value (bladder mast cells)?
Answer: Its value is “inhibit neurohormonal activation of bladder mast cell secretion”.

Question: And the “inhibition of neuropeptide release from neurons (in words)” value (neurons)?
Answer: Its value is “inhibits neuropeptide release from neurons”.

Question: What about the “anticholinergic properties (in words)” value [4] of the same molecule?
Answer: Its value is “strong anticholinergic properties decreasing frequency”.

Question: And the “relief from frequency, dysuria, pain” value ([2]; 9 females, 25 mg twice - three times/day × 8 months, alternate 25 mg every other day past 8 months)?
Answer: Its value is 80-100%.

Question: And the “Problems (side effects)” value ([2]; human, in vivo)?
Answer: Its value is “Mild sedation, weakness × 1 week”.

Question: Which “relief by previous treatment” value ([2]; Example 2, patient three) does the source give for heparin here?
Answer: The value was “very limited relief”.

Question: With `C[S+](C)[O-]` [DMSO, dimethylsulfoxide] as the molecule, how does the “relief by previous treatment” value ([2]; Example 2, patient three) read?
Answer: Its value is “very limited relief”.

Question: What about the “improvement by previous treatment” value ([2]; Example 3, patient one) of the same molecule?
Answer: The value was “fairly good improvement”.

Question: And the pulmonary excretion ([3]; intravesical)?
Answer: Its pulmonary excretion is “pulmonary excretion of a small percentage of the DMSO as dimethyl sulfide”.

Question: What about the “side effects: bladder and urethra” value ([1]; intravesical) of the same molecule?
Answer: Its value is “Bladder spasms and irritability may be experienced with DMSO treatment, as well as urethral burning during voiding”.

Question: And the “side effects: breath odor and taste” value ([1]; intravesical, most patients)?
Answer: The value was “garlic-like breath odor and a similar taste in their mouths”.

Question: With `CN(C)CCC=C1c2ccccc2CCc2ccccc21` [amitriptyline] as the molecule, how does the “success of previous treatment” value ([2]; Example 1, patient two, conventional methods and amitriptyline) read?
Answer: Its value is “limited success”.

Question: And the “effect of previous treatment on sleep” value [2, 6]?
Answer: Its value is “enabled them to sleep some”.

Question: And the “foods bringing symptoms on previous treatment” value [2, 6]?
Answer: Its value is “many foods still brought severe symptoms”.

Question: What about the side effects ([1]; human, in vivo) of the same molecule?
Answer: The side effects was “troublesome side effects such as hypotension, tachycardia, anxiety, or palpitations”.

Question: Which “inhibition of neurohormonal activation of bladder mast cell secretion (in words)” value (bladder mast cells) does the source give for `CN1CCC(=C2c3ccccc3CC(=O)c3sccc32)CC1` [Ketotifen] here?
Answer: The value was “inhibit neurohormonal activation of bladder mast cell secretion”.

Question: What does the source list for `CN1CCCC(n2nc(Cc3ccc(Cl)cc3)c3ccccc3c2=O)CC1` (stereo not drawn) [Azelastine]?
Answer: IC20 (Rat Bladder Mast Cells): 1000 nM; inhibition of neurohormonal activation of bladder mast cell secretion (in words) (bladder mast cells): inhibit neurohormonal activation of bladder mast cell secretion

Question: Which results are given for `CN1CCC(=C2c3ccccc3CCc3cccnc32)CC1` [Azatadine]?
Answer: IC20 (Rat Bladder Mast Cells): 1000 nM; inhibition of neurohormonal activation of bladder mast cell secretion (in words) (bladder mast cells): inhibit neurohormonal activation of bladder mast cell secretion

Question: With `OCCOCCN1CCN(C(c2ccccc2)c2ccc(Cl)cc2)CC1` (stereo not drawn) [hydroxyzine pamoate] as the molecule, how does the patient-reported state ([2]; Example 1, patient two) read?
Answer: The patient-reported state was “felt 100% normal”.

Question: What about the “time to reappearance of symptoms upon discontinuing administration” value ([2]; Example 1, patient two) of the same molecule?
Answer: Its value is at most 24 h.

Question: And the “time to disappearance of burning sensation upon voiding and sharp pelvic pain” value [2, 7]?
Answer: The value was 5 days.

Question: What about the “time to disappearance of extreme tenderness from chest area to pelvic area” value [2, 7] of the same molecule?
Answer: The value was “two”.

Question: And the “continued success after one year of treatment” value ([2]; Example 1, patient two, 50 mg and 25 mg on alternating days)?
Answer: Its value is 100%.
